Measurements: article PMC10482691, “LTP induction by structural rather than enzymatic functions of CaMKII” (Nature, 2023)
Values joined by “and” are separate entries in the source; they are usually repeats but may differ in a detail not shown here. Equal values may be shown once.

Experiments:
MEK1(h) = MEK1(h) (Homo sapiens, UniProt Q02750); test: Kinase selectivity panel (residual activity at 1 μM); format: biochemical; details: inhibitor at 1 μM; read-out: residual kinase activity in % of maximal activity
PKCδ(h) = PKCδ(h) (Homo sapiens, UniProt Q05655); test: as above; format: biochemical; details: inhibitor at 1 μM; read-out: residual kinase activity in % of maximal activity
CaMKIV(h) = CaMKIV(h) (Homo sapiens, UniProt Q16566); test: as above; format: biochemical; details: inhibitor at 1 μM; read-out: residual kinase activity in % of maximal activity
Pim-3(h) = Pim-3(h) (Homo sapiens, UniProt Q86V86); test: as above; format: biochemical; details: inhibitor at 1 μM; read-out: residual kinase activity in % of maximal activity
CDK5/p35(h) = CDK5/p35(h) (Homo sapiens, UniProt Q00535); test: as above; format: biochemical; details: inhibitor at 1 μM; read-out: residual kinase activity in % of maximal activity
[1] = biological target: purified CaMKIIα binding to GST–GluN2B-c S1303A (Homo sapiens, UniProt Q9UQM7); test: CaMKII binding to immobilized GST–GluN2B-c S1303A in vitro
purified CaMKIIα = purified CaMKIIα (Rattus norvegicus, UniProt P11275); test: In vitro kinase reaction: CaMKIIα autophosphorylation of T286; format: biochemical; details: 30 °C, 1 mM ATP, Ki from IC50 with Km ATP 33.3 μM, read-out: apparent inhibitor constant (Ki), pT286
Protocol: Data are presented as mean values ± s.e.m. a, Schematic of the AS283 inhibitor mechanism of action: ATP-competitive inhibition blocks enzymatic activity while mimicking the nucleotide binding requirement to allow interaction with GluN2B. b, Representative immunoblot and quantification of in vitro kinase reactions at 30 °C in 1 mM ATP measuring purified CaMKIIα phosphorylation of GST–GluA1 S831 with varying concentrations of AS283 (0.41–10 μM; n = 4 independent concentration curves). For a negative control (Neg.), ATP was omitted. […] ADP:AS283 P = 0.0697; ADP:tatCN21 P < 0.0001. ***P < 0.001. d, Confocal microscopy images of HEK293 cells co-expressing GFP–CaMKII and mCherry-2BC. […] CaMKII synaptic enrichment was measured before and after cLTP (n = 14,9 cells; RM two-way ANOVA with Šídák’s multiple comparisons test). […]
CaMKII-mediated phosphorylation of GluA1 S831 or GluN2B S1303 was measured by in vitro kinase reaction with a purified GST–GluA1 C-terminal tail or GST-GluN2B C-terminal tail. […] GST, phospho-S831, CaMKII, phospho-T286 or phospho-S1303 were detected in the samples by immunoblot analysis.
The inhibition constant Ki was calculated using the Cheng–Prusoff equation for competitive inhibition: Ki = IC50/(1 + [ATP]/Km).

Sequence of CaMKIV(h) (Q16566 whole entry): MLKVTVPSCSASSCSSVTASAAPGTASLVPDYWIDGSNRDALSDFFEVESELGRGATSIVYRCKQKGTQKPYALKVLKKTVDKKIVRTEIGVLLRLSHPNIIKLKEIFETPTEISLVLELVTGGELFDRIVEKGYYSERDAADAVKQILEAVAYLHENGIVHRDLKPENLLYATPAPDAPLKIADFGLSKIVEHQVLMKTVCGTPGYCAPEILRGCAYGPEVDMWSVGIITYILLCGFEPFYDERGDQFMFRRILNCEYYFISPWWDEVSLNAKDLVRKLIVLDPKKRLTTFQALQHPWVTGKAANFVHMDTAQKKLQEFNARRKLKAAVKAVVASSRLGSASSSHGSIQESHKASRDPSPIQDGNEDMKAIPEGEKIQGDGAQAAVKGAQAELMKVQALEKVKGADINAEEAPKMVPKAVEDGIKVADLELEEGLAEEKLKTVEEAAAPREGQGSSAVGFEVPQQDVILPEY
Sequence of MEK1(h) (Q02750 whole entry): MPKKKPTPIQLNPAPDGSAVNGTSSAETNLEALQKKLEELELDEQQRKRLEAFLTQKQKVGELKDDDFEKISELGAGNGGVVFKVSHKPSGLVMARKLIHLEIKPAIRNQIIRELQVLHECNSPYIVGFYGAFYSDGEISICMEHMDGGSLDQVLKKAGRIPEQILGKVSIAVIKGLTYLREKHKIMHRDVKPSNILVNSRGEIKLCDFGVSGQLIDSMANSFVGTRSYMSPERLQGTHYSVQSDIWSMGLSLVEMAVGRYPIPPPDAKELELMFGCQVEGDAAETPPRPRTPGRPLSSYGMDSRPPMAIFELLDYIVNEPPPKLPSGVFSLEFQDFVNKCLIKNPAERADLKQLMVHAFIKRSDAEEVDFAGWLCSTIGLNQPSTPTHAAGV
Sequence of PKCδ(h) (Q05655 whole entry): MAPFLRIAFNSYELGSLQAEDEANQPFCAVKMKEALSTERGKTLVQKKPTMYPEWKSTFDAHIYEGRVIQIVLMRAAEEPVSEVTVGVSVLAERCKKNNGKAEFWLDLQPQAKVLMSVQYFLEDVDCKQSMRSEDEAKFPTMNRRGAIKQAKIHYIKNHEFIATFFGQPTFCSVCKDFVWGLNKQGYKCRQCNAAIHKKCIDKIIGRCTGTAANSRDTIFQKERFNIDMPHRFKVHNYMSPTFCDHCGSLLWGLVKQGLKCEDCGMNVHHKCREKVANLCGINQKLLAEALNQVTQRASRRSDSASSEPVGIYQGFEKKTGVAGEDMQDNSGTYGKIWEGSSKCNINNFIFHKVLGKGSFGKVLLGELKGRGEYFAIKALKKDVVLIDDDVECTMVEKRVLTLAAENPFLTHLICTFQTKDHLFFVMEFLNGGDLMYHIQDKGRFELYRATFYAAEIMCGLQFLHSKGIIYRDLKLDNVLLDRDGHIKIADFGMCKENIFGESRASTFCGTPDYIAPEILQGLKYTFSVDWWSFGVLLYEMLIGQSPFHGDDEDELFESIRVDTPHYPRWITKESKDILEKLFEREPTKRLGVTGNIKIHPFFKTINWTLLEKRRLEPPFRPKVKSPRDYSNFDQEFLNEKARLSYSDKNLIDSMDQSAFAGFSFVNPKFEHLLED
Sequence of CDK5/p35(h) (Q00535 whole entry): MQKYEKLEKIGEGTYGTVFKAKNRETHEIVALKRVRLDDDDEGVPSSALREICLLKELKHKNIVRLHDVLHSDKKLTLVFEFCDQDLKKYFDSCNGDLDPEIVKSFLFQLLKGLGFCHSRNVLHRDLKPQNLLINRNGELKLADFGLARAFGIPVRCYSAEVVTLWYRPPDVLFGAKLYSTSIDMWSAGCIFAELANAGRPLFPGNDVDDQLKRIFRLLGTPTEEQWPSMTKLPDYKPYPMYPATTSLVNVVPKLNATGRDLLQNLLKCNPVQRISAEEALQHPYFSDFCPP
Sequence of CDK5/p35(h) (Q15078 whole entry partner): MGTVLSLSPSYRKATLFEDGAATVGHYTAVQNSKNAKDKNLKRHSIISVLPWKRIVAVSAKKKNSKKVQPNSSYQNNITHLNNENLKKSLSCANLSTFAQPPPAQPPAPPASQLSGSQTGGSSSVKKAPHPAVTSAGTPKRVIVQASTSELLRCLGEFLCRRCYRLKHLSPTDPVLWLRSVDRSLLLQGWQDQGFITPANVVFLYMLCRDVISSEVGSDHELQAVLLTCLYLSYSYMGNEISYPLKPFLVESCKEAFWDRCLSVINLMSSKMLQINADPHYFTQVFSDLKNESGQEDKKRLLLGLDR

NCCNc1cccc(-c2ccnc3[nH]c4ccccc4c23)c1 [AS283]
remaining activity at 1 µM (MEK1(h)): 85%
remaining activity at 1 µM (PKCδ(h)): 39%
remaining activity at 1 µM (CaMKIV(h)): 90%
remaining activity at 1 µM (Pim-3(h)): 97%
remaining activity at 1 µM (CDK5/p35(h)): 33%
bound CaMKIIα (immunoblot, relative) ([1]; Ca2+/CaM, 10 μM AS283, no nucleotide, GST–GluN2B-c S1303A): 4.303 and 5.73 and 6.682
enhancing effect on CaMKII binding compared with ATP ([1]; GluN2B S1303A mutant): indistinguishable
Ki (purified CaMKIIα): 71 nM
